Values belong to the compound of their own block, whether it stands above or below them.
Experiments:
[1] = ABTS radical scavenging assay; assay type: biochemical; details: 30 min in the dark, 734 nm
Procedure: ABTS radical scavenging activity was performed as described by Singh et al. ([26]). The reaction mixture containing 0.1 mL of extract was mixed with 1.9 mL ABTS radical ([…] = 1.0 ± 0.01) then incubated for 30 min in the dark, and the absorbance was read at 734 nm. RSA and IC50 of the extract were calculated as described above.

[2] = DPPH radical scavenging assay; assay type: biochemical; details: 30 min in the dark, 517 nm
Procedure: 0.1 mL of each of the five different concentrations of the extract was mixed with 1.9 mL DPPH reagent prepared in methanol (A517 = 1.1 + 0.01). The mixture was incubated for 30 min in the dark and then read at 517 nm. The radical scavenging activity (RSA) of each extract was calculated as follows ([26]).
RSA%=(Acontrol−Asample)/AcontrolX100%
From the RSA%, 50 inhibitory concentration (IC50) was calculated and expressed in μg/mL.

Salmonella typhi = assay: Kirby-Bauer disk diffusion antibacterial assay; assay type: cell-based; details: Salmonella enterica, 24 h, read-out: Inhibition zone, Salmonella typhi
Staphylococcus aureus = assay: Kirby-Bauer disk diffusion antibacterial assay; assay type: cell-based; details: 6 mm disc, extract 0.5 mg, chloramphenicol 0.025 mg, 24 h 37°C
Procedure: (§1) The Kirby-Bauer disk diffusion method ([31]) was used for the evaluation of the antibacterial activity of MExt. Four test organisms, viz.; Salmonella typhimurium (ATTC13311), Escherichia coli (MTCC 739), Bacillus subtilis (MTTCC 121), Staphylococcus aureus (ATCC 1026), were grown in Mueller-Hinton broth (MHB) at 37°C and 160 rpm and brought to its exponential phase. The sample was prepared by dissolving the MExt in 50% DMSO (at 25 mg/mL w/v concentration) and filtering through a (0.22 μm) syringe filter. Hundred microliter of each bacterial strain, equivalent to 0.5 McFarland turbidity were spread over sterile Mueller-Hinton agar (MHA) plate using a sterile swab. A 20 μL sample (0.5 mg) impregnated in a 6 mm sterile disc was seeded on the freshly spread MHA plates and incubated for 24 h at 37°C. Chloramphenicol 0.025 mg was used as a positive control. One reagent control containing the buffer and solvent used was also included in the experiment. The zone of inhibition was recorded using a Vernier caliper.

Bacillus subtilis = assay: Kirby-Bauer disk diffusion antibacterial assay; assay type: cell-based; details: 6 mm disc, extract 0.5 mg, chloramphenicol 0.025 mg, 24 h 37°C
Procedure: as §1

Escherichia coli = assay: Kirby-Bauer disk diffusion antibacterial assay; assay type: cell-based; details: 6 mm disc, extract 0.5 mg, chloramphenicol 0.025 mg, 24 h 37°C, read-out: Inhibition zone, Eschericia coli
Procedure: as §1

[3] = system: HeLa (human cervical cancer cell line); assay: In vitro cytotoxicity, Sulforhodamine B (SRB) assay; assay type: cell-based; details: 48 h, read-out: IC50 against HeLa cells
Procedure: The cytotoxic activity of MExt was investigated using Sulforhodamine B colorimetric (SRB) assay against HeLa (human cervical cancer cell line). The cell was maintained in a Dulbecco’s Modified Eagle Medium (DMEM). […] The monolayer cells were then fixed with 10% Trichloroacetic acid (TCA) for 1 h at […] followed by washing with water. After drying, the cell plates were stained with SRB for 30 min and then washed with 1% acetic acid. The SRB dye bound to the protein was then dissolved by adding 10 mM Tris base (pH 10.5). The SRB dye released was quantified by taking absorbance at 510 nm in Varioskan Flash Multimode Reader (Thermo Fisher Scientific, United States) ([32]).

- ABTS (IC50) [1]: 5.4 µg/mL
- ABTS (IC50) ([1]; listed as Vitamin C): 3.00 ± 0.40 µg/mL
- DPPH (IC50) [2]: 3 µg/mL
- DPPH (IC50) ([2]; listed as Vitamin C): 5.40 ± 0.30 µg/mL
SMILES: O=C1O[C@H]([C@@H](O)CO)C(O)=C1O [Ascorbic acid]

SMILES: O=C(N[C@H](CO)[C@H](O)c1ccc([N+](=O)[O-])cc1)C(Cl)Cl [Chloramphenicol]
- zone of inhibition at 25 µg/disc (Salmonella typhi): 30 ± 2 mm
- zone of inhibition at 25 µg/disc (Staphylococcus aureus): 29 ± 1 mm
- zone of inhibition at 25 µg/disc (Bacillus subtilis): 30.2 ± 1.6 mm
- zone of inhibition at 25 µg/disc (Escherichia coli): 28 ± 2.2 mm

SMILES: COc1cccc2c1C(=O)c1c(O)c3c(c(O)c1C2=O)C[C@@](O)(C(=O)CO)C[C@@H]3O[C@H]1C[C@H](N)[C@H](O)[C@H](C)O1 [Doxorubicin]
- IC50 [3]: < 5 µg/mL

Reference: publication PMC10277484, “Bioactivity and nutritional quality of nutgall (Rhus semialata Murray), an underutilized fruit of Manipur” (Frontiers in Nutrition, 2023)
